Results as given in US9284318B2, “Protein kinase inhibitors” (Pharmascience, Inc., priority 2011, dated 2016).
pEC50, pIC50: −log10 of the molar value.

Columns and labels:
Aurora-B(h) = target: T1, Aurora-B(h) (Homo sapiens, UniProt Q96GD4); experiment: Kinase Profiler Service Assay, Aurora-B; format: biochemical; conditions: at 100 nM
T1 construct: purchased Millipore (Kinase Profiler Service)
Protocol: (§1) Selected kinase binding affinities were determined using Kinase Profiler™ Service Assay Protocols (Millipore, V53.0).

Flt3 (h) = target: T2, Flt3 (h) (Homo sapiens, UniProt P36888); experiment: Kinase Profiler Service Assay, Flt3; format: biochemical; conditions: at 100 nM
T2 construct: purchased Millipore (Kinase Profiler Service)
T2 sequence (P36888 27-993): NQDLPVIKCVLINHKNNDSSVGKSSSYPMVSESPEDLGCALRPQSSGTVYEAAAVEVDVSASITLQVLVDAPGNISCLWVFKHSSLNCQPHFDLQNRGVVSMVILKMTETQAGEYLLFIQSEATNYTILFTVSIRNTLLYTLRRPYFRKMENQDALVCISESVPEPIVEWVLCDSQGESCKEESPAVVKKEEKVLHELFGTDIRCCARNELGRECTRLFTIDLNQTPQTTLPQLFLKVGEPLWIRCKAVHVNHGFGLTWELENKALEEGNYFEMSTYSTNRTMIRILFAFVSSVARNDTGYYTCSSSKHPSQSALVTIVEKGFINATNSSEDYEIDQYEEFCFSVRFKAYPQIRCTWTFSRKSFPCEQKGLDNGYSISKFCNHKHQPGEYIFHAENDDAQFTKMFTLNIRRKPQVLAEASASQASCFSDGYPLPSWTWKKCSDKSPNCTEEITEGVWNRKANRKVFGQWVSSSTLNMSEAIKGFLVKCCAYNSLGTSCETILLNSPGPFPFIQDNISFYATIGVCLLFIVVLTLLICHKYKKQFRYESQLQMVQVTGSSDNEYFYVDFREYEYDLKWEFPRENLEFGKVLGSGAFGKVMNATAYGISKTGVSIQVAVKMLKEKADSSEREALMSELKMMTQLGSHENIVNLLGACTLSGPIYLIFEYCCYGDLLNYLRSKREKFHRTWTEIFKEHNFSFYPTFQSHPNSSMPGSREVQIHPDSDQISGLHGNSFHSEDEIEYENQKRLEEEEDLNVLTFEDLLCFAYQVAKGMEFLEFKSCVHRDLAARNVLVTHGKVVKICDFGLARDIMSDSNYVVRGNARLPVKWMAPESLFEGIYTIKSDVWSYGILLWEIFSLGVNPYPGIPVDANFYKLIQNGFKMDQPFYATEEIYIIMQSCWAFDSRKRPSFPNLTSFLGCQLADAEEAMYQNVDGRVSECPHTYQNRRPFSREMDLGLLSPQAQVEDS
Protocol: as §1

[1] = target: T3, recombinant human colony stimulating factor 1 receptor (FMS) (Homo sapiens, UniProt P07333); experiment: Biochemical cFMS (CSF1R) fluorescence polarization kinase assay; conditions: 10 μM ATP, 100 μM substrate, 60 minutes
T3 construct: containing the catalytic domain (amino acids 538-910); His tag; purchased Invitrogen; host or cells: insect cells
T3 sequence (P07333 538-910): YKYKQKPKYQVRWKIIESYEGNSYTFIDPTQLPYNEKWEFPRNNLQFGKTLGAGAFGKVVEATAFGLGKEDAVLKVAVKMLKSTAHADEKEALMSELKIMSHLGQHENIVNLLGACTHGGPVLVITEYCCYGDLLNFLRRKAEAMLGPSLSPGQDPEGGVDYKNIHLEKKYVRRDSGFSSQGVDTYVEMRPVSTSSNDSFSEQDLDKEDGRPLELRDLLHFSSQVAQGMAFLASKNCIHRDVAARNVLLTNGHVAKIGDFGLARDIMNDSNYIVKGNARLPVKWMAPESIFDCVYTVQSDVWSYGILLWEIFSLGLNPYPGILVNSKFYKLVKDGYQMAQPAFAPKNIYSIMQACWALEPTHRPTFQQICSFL
Protocol: Biochemical cFMS (CSF1R) Assay:
Fluorescence polarization-based kinase biochemical assays were performed in 384 well-plate format using histidine tagged recombinant human colony stimulating factor 1 receptor (FMS) supplied from Invitrogen™ (containing the catalytic domain (amino acids 538-910), expressed in insect cells and activated in vitro via auto phosphorylation) and a modified protocol of the KinEASE™ FP Fluorescein Green Assay supplied from Millipore™.
Kinase reactions were performed in 384 well plate format at room temperature for 60 minutes in presence of 100 μM substrate, 10 μM ATP and variable test article concentrations. The reaction was stopped with EDTA/KinEASE™ detection reagents and the polarization measured on a Tecan 500 instrument. From the dose-response curve obtained, the IC50 was estimated using Graph pad Prisms® using a non linear fit curve.

Tie2 = target: T4, Tie2 (Homo sapiens, UniProt Q02763); experiment: Kinase Profiler Service Assay, Tie2; format: biochemical; conditions: at 100 nM
T4 construct: purchased Millipore (Kinase Profiler Service)
Protocol: as §1

cFMS(h) = target: T5, cFMS(h) (Homo sapiens, UniProt P07333); experiment: Kinase Profiler Service Assay, cFMS; format: biochemical; conditions: at 100 nM
T5 construct: purchased Millipore (Kinase Profiler Service)
T5 sequence (P07333 20-972): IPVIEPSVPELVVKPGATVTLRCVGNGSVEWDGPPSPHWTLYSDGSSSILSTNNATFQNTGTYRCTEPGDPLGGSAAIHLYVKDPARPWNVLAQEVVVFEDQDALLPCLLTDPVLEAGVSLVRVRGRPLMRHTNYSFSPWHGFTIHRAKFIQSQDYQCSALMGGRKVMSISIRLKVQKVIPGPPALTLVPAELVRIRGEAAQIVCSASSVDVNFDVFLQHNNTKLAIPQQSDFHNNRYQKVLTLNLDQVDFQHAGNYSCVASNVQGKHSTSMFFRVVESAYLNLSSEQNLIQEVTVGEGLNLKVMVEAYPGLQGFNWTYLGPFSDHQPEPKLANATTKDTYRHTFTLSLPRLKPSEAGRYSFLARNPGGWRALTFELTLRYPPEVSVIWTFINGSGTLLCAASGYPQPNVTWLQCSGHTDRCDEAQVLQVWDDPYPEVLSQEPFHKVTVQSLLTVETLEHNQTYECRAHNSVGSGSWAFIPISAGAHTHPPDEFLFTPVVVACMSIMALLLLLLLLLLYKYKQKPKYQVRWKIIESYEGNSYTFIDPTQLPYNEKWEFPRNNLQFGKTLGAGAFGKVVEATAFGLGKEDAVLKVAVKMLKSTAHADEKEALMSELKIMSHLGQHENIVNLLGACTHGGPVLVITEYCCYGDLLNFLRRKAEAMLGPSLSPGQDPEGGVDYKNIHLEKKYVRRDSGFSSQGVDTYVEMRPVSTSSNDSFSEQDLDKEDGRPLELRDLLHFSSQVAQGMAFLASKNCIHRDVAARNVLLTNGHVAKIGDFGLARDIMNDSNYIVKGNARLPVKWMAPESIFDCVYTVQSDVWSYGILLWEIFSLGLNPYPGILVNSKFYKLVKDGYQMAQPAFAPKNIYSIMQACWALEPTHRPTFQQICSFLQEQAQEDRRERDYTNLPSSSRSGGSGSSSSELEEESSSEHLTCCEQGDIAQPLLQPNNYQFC
Protocol: as §1

[2] = system: M-NFS-60 M-CSF-dependent myeloid leukemia cells; experiment: Murine M-CSF-dependent M-NFS-60 cell survival assay; format: cell-based; conditions: Mus musculus; cell survival at 72 hours, 20 ng/ml M-CSF, Cell Titer-Glo
Protocol: Cellular Assays: Murine M-CSF-Dependent M-NFS-60 Cell Survival Assay
Murine M-NFS-60 M-CSF-dependent myeloid leukemia cells were purchased from ATCC (CRL-1838). Cells were routinely cultured at 37° C., 5% CO2 in complete medium (RPMI supplemented with 10% FBS, 1% penicillin/streptomycin, 50 uM beta mercaptoethanol) containing 30 ng/ml recombinant murine M-CSF (Peprotech 315-02). For survival assays, cells were transferred to depleted medium (complete medium depleted of M-CSF) for 24 hours prior to initiation of each experiment. M-CSF-starved cells were harvested and re-suspended in complete medium containing 20 ng/ml M-CSF. Cells were seeded at 25,000 cells/well in 96-well plates and incubated for 1 hour at 37° C., 5% CO2. Cells were treated with 1 uM or 10 uM compound curves in triplicate and cell survival was measured 72 hours later by Cell Titer-Glo Luminescent Assay (Promega). Luminescence was read using a Tecan Infinite F200 microplate reader. EC50 values (50% survival in the presence of compound as compared to vehicle treated controls) were calculated from non-linear fit dose response compound curves using GraphPad Prism Software.

MV4-11 cells = experiment: Human MV4-11 biphenotypic B myelomonocytic leukemia cell survival assay; format: cell-based; conditions: cell survival at 72h, Cell Titer-Glo
Protocol: Human MV4-11 Biphenotypic B Myelomonocytic Leukemia Cell Survival Assay
Biphenotypic B myelomonocytic leukemia MV4-11 cells (ATCC CRL-9591) were cultured in suspension at 37° C., 5% CO2 in complete medium (RPMI supplemented with 10% FBS, 1% penicillin/streptomycin). One day prior to treatment, cells per seeded in 96-well plates at 8000 cells/well in complete medium. The following day, triplicate wells were treated with compound curves of 100, 1000 or 10,000 nM starting concentration according to compound potency. Cell survival was measured 72h later by Cell Titer-Glo Luminescent Assay (Promega). Luminescence was read using a Tecan Infinite F200 microplate reader. EC50 values (50% survival in the presence of compound as compared to vehicle treated controls) were calculated from non-linear fit dose response compound curves using CambridgeSoft BioAssay software (Perkin Elmer).

FLT4 = target: T6, FLT4 (Homo sapiens, UniProt P35916); experiment: Kinase Profiler Service Assay, FLT4; format: biochemical; conditions: at 100 nM
T6 construct: purchased Millipore (Kinase Profiler Service)
Protocol: as §1

PDGFR-b(h) = target: T7, PDGFR-b(h) (Homo sapiens, UniProt P09619); experiment: Kinase Profiler Service Assay, PDGFR-b; format: biochemical; conditions: at 100 nM
T7 construct: purchased Millipore (Kinase Profiler Service)
T7 sequence (P09619 33-1106): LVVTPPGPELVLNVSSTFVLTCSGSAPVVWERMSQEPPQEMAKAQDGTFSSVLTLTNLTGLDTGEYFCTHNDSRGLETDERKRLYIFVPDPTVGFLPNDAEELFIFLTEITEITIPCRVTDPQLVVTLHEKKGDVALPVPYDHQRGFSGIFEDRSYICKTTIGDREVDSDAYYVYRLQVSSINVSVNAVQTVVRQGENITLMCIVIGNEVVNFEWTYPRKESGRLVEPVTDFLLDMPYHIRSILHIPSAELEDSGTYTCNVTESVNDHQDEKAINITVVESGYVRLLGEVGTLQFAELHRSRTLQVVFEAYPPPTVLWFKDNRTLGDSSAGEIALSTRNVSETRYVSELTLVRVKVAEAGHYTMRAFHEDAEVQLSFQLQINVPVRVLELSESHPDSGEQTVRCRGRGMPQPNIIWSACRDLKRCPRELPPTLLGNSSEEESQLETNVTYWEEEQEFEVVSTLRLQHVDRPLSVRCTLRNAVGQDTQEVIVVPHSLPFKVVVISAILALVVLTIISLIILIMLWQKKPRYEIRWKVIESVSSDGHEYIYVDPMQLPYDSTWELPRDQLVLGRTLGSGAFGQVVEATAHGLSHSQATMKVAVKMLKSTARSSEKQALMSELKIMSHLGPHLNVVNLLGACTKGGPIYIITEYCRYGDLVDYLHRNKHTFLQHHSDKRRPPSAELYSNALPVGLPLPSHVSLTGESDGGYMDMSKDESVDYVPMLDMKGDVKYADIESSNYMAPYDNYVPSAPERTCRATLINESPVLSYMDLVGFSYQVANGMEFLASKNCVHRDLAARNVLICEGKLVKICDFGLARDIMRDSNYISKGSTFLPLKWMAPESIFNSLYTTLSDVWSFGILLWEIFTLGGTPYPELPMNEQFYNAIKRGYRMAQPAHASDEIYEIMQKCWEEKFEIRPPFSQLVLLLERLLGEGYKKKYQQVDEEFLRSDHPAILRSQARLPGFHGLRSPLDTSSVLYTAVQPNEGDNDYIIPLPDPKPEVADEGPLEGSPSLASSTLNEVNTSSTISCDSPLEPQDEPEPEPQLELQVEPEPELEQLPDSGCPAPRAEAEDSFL
Protocol: as §1

KDR(h) = target: T8, KDR(h) (Homo sapiens, UniProt P35968); experiment: Kinase Profiler Service Assay, KDR; format: biochemical; conditions: at 100 nM
T8 construct: purchased Millipore (Kinase Profiler Service)
T8 sequence (P35968 20-1356): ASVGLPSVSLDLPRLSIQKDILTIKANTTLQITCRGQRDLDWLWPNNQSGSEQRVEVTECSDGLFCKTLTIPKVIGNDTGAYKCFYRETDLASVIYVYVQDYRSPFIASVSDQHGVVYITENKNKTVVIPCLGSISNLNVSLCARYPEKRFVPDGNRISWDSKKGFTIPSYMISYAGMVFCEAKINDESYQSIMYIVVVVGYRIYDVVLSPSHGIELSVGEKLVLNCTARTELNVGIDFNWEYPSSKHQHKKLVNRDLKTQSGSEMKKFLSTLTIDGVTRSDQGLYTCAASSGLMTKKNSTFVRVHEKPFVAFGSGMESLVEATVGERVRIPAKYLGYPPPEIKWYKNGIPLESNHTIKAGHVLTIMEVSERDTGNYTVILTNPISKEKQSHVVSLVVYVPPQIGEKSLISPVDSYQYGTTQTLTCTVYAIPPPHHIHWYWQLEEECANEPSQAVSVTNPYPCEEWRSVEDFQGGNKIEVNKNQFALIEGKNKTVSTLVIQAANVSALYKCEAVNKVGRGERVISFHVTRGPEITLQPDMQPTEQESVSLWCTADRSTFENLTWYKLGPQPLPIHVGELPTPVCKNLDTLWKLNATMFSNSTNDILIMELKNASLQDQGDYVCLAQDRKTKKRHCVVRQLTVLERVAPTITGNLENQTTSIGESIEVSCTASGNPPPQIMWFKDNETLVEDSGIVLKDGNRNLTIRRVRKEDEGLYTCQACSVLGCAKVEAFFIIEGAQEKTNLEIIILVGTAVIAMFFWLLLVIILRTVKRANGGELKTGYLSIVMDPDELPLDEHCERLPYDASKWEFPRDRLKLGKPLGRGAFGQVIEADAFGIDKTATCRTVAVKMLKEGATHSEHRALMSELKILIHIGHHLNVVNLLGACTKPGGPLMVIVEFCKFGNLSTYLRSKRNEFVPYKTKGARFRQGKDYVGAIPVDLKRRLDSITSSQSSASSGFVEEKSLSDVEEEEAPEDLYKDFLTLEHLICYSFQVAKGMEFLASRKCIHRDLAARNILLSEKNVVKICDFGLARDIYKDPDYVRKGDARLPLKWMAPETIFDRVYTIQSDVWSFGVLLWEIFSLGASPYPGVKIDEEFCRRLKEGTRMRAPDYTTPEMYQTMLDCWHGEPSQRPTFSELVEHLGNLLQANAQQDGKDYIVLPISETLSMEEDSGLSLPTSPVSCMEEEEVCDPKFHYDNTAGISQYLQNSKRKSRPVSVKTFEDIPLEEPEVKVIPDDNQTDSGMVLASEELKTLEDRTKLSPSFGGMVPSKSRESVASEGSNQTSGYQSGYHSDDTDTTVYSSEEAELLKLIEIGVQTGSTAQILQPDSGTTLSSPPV
Protocol: as §1

FGFR1 = target: T9, FGFR1 (Homo sapiens, UniProt P11362); experiment: Kinase Profiler Service Assay, FGFR1; format: biochemical; conditions: at 100 nM
T9 construct: purchased Millipore (Kinase Profiler Service)
T9 sequence (P11362 22-822): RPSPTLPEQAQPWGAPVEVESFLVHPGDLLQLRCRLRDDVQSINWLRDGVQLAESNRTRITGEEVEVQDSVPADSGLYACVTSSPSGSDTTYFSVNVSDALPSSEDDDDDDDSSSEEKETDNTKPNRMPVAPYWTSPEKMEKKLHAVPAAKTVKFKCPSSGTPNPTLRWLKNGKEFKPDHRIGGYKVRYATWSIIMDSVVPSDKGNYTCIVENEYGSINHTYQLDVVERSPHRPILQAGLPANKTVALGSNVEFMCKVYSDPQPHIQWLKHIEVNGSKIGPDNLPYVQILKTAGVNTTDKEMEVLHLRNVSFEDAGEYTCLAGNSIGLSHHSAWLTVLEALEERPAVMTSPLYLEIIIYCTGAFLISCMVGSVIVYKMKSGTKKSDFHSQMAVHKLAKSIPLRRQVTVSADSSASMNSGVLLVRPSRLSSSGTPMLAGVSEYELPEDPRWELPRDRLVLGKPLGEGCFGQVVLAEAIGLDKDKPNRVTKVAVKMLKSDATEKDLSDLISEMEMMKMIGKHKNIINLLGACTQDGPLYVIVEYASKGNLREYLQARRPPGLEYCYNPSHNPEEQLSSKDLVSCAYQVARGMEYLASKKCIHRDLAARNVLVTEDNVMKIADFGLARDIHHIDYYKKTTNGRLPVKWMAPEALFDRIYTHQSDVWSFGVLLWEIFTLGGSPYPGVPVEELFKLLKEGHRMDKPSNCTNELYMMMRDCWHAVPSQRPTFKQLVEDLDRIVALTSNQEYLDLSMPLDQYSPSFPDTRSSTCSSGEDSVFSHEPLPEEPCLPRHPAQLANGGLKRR
Protocol: as §1

216 other kinases = experiment: Kinase Profiler Service Assay, selectivity panel; format: biochemical; conditions: at 300 nM
Protocol: as §1

EphA2 = target: T10, EphA2 (Homo sapiens, UniProt P29317); experiment: Kinase Profiler Service Assay, EphA2; format: biochemical; conditions: at 100 nM
T10 construct: purchased Millipore (Kinase Profiler Service)
T10 sequence (P29317 24-976): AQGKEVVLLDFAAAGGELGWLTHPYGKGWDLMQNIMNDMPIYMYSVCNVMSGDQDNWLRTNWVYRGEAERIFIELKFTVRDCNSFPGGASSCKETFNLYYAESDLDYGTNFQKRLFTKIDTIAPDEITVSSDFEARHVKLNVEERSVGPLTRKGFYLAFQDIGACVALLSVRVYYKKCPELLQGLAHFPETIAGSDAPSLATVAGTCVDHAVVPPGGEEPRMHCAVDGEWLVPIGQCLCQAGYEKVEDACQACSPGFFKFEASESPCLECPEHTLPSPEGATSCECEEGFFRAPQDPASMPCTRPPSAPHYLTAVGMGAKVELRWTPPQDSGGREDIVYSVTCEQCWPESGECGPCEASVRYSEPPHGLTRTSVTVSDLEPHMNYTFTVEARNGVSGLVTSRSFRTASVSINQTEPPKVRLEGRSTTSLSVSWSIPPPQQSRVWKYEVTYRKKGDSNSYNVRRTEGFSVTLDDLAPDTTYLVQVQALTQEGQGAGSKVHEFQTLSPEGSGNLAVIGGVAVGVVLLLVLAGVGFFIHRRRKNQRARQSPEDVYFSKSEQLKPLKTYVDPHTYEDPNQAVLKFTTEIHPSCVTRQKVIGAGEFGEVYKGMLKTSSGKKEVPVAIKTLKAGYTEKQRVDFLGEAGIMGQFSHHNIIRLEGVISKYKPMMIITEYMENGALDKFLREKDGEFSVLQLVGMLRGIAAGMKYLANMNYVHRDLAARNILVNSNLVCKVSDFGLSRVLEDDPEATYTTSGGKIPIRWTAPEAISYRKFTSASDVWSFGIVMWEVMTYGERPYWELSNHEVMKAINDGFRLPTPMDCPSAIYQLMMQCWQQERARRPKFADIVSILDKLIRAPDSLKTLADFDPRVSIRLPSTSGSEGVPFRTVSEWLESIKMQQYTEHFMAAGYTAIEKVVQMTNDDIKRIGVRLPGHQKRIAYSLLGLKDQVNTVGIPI
Protocol: as §1

Row | inhibition of Aurora-B (Aurora-B(h)) | inhibition of Flt3 (Flt3 (h)) | pIC50 [1] | inhibition of Tie2 (Tie2) | inhibition of cFMS (cFMS(h)) | inhibition of FLT4 (FLT4) | inhibition of PDGFR-b (PDGFR-b(h)) | inhibition of KDR (KDR(h)) | inhibition of FGFR1 (FGFR1) | inhibition of 216 other kinases (selectivity) (216 other kinases) [%] | inhibition of EphA2 (EphA2) | Structure (SMILES) | pEC50 [2] | pEC50 (MV4-11 cells)
1 | inhibits | inhibits | 6.00 to 7.00 | inhibits | inhibits | inhibits | inhibits | inhibits | inhibits |  |  | Nc1ncnc2c3c(n(-c4ccc(NC(=O)Nc5ccc(F)cc5)cc4)c12)CCC3 [Compound 14] | > 7.00 | > 7.00
2 |  | inhibits | 6.00 to 7.00 |  | inhibits |  |  | inhibits | inhibits | ≤ 20 | inhibits | Nc1ncnc2c3c(n(-c4ccc(NC(=O)Nc5cc(C(F)(F)F)ccc5F)cc4)c12)CCC3 [Compound 44] | 6.00 to 7.00 | > 7.00
